Source: patent US20230126204A1, “[1,3]DIAZINO[5,4-d]PYRIMIDINES AS HER2 INHIBITORS” (Boehringer Ingelheim International GmbH, priority 2020, published 2023)
Where two headings read alike, the source gives them in different places.

What was measured:
Type in all cases: cell-based
[1] = system: Ba/F3 cells EGFR WT; test: Ba/F3 proliferation assay EGFR WT (EGF dependent); details: Mus musculus, CellTiter-Glo, read-out: GI50 BAF3 EGF dep.
Procedure: (§1) Ba/F3 cell model generation and proliferation assays
(§2) Plasmids containing HER2 mutants and EGFR WT were obtained from GeneScript. To generate EGFR/HER2-dependent Ba/F3 models, Ba/F3 cells were transduced with retroviruses containing vectors that harbor EGFR WT, HER2 WT or HER2 mutants (YVMA). Platinum-E cells (Cell Biolabs) were used for retrovirus packaging. Retrovirus was added to Ba/F3 cells. To ensure infection, 4 μg/mL polybrene was added and cells were spinfected. Infection efficiency was confirmed by measuring GFP-positive cells using a cell analyzer. Cells with an infection efficiency of 10% to 20% were further cultivated and puromycin selection with 1 μg/mL was initiated. As a control, parental Ba/F3 cells were used to assess the selection status. Selection was considered successful when parental Ba/F3 cells cultures died. To evaluate the transforming potential of HER2 mutations, the growth medium was no longer supplemented with IL-3. Ba/F3 cells harboring the empty vector were used as a control. A switch from IL-3 to EGF was performed for Ba/F3 cells with the EGFR WT known for its dependency on EGF ligand. Approximately ten days before conducting the experiments, puromycin was left out. For proliferation assays (data in table 12 and 14), Ba/F3 cells were seeded into 96-well plates at 5×10^3 cells/100 μL in growth media. Compounds were added by using a HP D3000 Digital Dispenser. All treatments were performed in technical triplicates. Treated cells were incubated for 72 h at 37° C. with 5% CO2. CellTiter-Glo® Luminescent Cell Viability Assay (Promega) was performed and chemoluminescence was measured by using the multilabel Plate Reader VICTOR X4. The raw data were imported into and analyzed with the Boehringer Ingelheim proprietary software MegaLab (curve fitting based on the program PRISM, GraphPad Inc.).

[2] = system: NCI-H2170 (HER2 wild type) cells; test: Tumor cell proliferation assay NCI-H2170 (HER2 wild type); details: Homo sapiens, 72 h, CellTiter-Glo, read-out: GI50 NCI H-2170 HER2 wt amp.
Procedure: (§3) For proliferation assays, NCI-H2170 (HER2 wild type), NCI-H2170 HER2 YVMA and EGFR WT dependent A431 cells were used. NCI-H2170 HER2 YVMA or NCI-H2170 cells were seeded into 96-well plates at 750 cells/60 μL in growth media (RPMI ATCC+10% FBS, +Penicillin/Streptomycin). […] Compounds were added by using a HP D3000 Digital Dispenser one day after plating the cells. All treatments were performed in technical triplicates. Treated cells were incubated for 72 h at 37° C. with 5% CO2. CellTiter-Glo® Luminescent Cell Viability Assay (Promega) was performed and chemoluminescence was measured by using the multilabel Plate Reader VICTOR X4. The raw data were imported into and analyzed with the Boehringer Ingelheim proprietary software MegaLab (curve fitting based on the program PRISM, GraphPad Inc.).

[3] = system: Ba/F3 cells HER2 WT; test: Ba/F3 proliferation assay HER2 WT; details: Mus musculus, BaF3, 72 h, CellTiter-Glo
Procedure: as §1, §2

[4] = system: NCI-H2170 HER2 YVMA cells; test: Tumor cell proliferation assay NCI-H2170 HER2 YVMA; details: Homo sapiens, 72 h, CellTiter-Glo, read-out: GI50 NCI H-2170 HER2 YVMA
Description: HER2 YVMA tumor cell line model generation and proliferation assays
Homology-directed genome engineering was employed to insert a 12 nucleotide sequence encoding YVMA into Exon 20 of the genomic HER2 locus in NCI-H2170 cells. […] The DNA template containing the HER2 exon 20 YVMA insertion variant was obtained from GenScript. PCR followed by Sanger sequencing was used to confirm the presence of the 12-nucleotide insertion in HER2 Exon 20 resulting in the YVMA amino acid duplication.
as §3

[5] = system: EGFR WT dependent A431 cells; test: Tumor cell proliferation assay A431 (EGFR WT dependent); details: Homo sapiens, A-431, 72 h, CellTiter-Glo, read-out: GI50 A431 EGFR wt amp.
Procedure: as §3

[6] = system: Ba/F3 cells HER2 mutants (YVMA); test: Ba/F3 proliferation assay HER2 YVMA; details: Mus musculus, BaF3, 72 h, CellTiter-Glo
Procedure: as §1, §2

[7] = target: T1, HER2 YVMA (Homo sapiens, UniProt P04626, INS775YVMA); test: pHER2 (ERBB2) YVMA assay (AlphaScreen Surefire, HEK cells); details: HEK cells expressing HER2 YVMA, phosphorylation at Tyr1221/1222, 4 h
T1 construct: expressed in transfected cells; host or cells: human HEK cells, retroviral transduction, puromycin selection, doxycycline-inducible expression
Procedure: (§4) For the assay, HEK HER2 YVMA cells were seeded in MEM medium with 10% FBS. 4 hours prior to compound addition, HER2 YVMA expression was induced using 1 μg/ml Doxycycline. […] Subsequently, 60.000 cells/well in 60 μL were added. Cells were incubated with compounds for 4 h at 37° C. […] The mixture was incubated at a temperature of 20-25° C. with shaking (700 rpm) for 20 min. After centrifugation, 4 μL of the lysate were transferred to Proxiplates. […] Plates were shaken for 1 min (1400 rpm) and incubated for 2 h at a temperature of 20-25° C. in the dark.
The results of the assay are provided as IC50 values.

[8] = target: T2, EGFR wild type (WT) (Homo sapiens, UniProt P00533); test: pEGFR assay (AlphaScreen Surefire, HEK cells); details: HEK cells expressing EGFR WT, phosphorylation at Tyr1068, 4 h
T2 construct: expressed in transfected cells; host or cells: human HEK cells (ATCC CRL-1573), retroviral transduction, puromycin selection
Procedure: This assay quantifies the phosphorylation of EGFR at Tyr1068 and was used to measure the inhibitory effect of compounds on the transgenic EGFR wild type (WT) protein expressed in HEK cells.
as §4, with “Transduced cells were selected using puromycin. p-EGFR Tyr1068 was determined using the AlphaScreen Surefire pEGF Receptor (Tyr1068) Assay (PerkinElmer, TGRERS). For” for “For”, “EGFR WT” for “HER2 YVMA”, “FBS.” for “FBS. 4 hours prior to compound addition, HER2 YVMA expression was induced using 1 μg/ml Doxycycline.”
This cellular phospho-EGFR (pEGFR) compound dose-response assay quantifies the phosphorylation of EGFR at Tyr1068 in HEK cells expressing EGFR WT. The results of the assay are provided as IC50 values.

[9] = BaF3, EGF instead of IL-3, 72 h
[10] = BaF3, prior art compounds, EGF instead of IL-3, 72 h

T1 sequence (P04626 with tags, fused parts or gaps INS775YVMA): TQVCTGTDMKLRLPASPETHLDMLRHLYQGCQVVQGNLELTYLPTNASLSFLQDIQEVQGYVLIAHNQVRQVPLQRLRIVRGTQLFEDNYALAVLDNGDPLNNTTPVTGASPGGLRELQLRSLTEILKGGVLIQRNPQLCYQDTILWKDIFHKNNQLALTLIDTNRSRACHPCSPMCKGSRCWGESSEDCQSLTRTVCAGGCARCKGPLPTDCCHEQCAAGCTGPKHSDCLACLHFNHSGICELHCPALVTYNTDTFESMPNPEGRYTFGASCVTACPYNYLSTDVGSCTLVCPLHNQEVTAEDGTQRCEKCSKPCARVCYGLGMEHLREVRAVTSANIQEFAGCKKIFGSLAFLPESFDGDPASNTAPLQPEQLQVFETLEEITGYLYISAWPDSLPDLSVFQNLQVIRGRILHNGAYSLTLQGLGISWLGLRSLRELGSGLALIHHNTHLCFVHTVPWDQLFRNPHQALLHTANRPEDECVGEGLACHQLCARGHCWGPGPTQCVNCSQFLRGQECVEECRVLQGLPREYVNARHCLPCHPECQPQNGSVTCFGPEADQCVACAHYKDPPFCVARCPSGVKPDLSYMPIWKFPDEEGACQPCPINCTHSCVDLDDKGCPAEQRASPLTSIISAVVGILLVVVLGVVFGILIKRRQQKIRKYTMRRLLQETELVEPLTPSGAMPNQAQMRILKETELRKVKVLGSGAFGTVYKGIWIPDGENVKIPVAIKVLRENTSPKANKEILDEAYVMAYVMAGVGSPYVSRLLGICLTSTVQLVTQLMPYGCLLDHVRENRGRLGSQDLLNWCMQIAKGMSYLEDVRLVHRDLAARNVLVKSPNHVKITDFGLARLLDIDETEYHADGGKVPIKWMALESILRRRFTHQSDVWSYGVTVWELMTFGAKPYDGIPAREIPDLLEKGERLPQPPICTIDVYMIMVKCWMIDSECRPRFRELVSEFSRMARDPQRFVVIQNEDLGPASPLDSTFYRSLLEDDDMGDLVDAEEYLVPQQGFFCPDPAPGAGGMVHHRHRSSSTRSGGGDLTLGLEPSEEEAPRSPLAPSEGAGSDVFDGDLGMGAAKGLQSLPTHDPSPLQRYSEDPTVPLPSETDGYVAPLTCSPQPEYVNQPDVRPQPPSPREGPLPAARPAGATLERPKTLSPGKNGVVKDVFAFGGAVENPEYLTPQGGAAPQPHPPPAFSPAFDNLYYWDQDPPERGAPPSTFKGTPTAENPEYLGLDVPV
T2 sequence (P00533 25-1210): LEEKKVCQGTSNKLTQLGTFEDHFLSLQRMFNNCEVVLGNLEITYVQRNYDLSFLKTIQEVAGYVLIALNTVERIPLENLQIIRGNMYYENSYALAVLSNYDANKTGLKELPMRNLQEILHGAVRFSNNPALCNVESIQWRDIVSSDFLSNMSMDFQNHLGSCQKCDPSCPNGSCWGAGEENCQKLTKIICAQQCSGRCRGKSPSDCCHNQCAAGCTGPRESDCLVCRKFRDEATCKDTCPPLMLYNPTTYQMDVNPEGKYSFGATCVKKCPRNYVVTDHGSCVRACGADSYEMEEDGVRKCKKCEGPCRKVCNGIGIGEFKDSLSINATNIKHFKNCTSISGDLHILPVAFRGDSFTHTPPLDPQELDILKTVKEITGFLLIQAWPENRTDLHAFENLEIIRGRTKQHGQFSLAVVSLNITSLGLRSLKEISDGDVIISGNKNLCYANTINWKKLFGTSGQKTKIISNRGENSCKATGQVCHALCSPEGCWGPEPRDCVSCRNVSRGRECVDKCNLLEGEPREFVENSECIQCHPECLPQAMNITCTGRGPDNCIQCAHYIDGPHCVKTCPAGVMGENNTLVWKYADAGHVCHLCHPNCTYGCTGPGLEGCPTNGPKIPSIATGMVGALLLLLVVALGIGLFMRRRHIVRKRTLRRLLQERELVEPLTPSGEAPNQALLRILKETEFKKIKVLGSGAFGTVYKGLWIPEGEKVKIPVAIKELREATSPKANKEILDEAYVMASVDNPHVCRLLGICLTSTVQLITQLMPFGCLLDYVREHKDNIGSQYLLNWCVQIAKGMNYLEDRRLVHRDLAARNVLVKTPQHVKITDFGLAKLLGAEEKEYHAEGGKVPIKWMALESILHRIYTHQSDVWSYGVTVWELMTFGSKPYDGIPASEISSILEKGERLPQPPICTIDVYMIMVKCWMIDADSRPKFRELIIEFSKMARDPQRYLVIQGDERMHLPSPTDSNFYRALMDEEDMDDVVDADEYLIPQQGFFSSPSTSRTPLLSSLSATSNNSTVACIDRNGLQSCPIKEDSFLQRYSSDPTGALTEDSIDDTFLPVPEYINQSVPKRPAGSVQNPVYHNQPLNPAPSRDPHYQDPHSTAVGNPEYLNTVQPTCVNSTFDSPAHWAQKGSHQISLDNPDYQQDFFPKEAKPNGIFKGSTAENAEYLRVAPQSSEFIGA

| SMILES | GI50 [1, 9] [nM] | GI50 [2] [nM] | GI50 [3] [nM] | GI50 [4] [nM] | GI50 [5] [nM] | GI50 [6] [nM] | IC50 [7] [nM] | IC50 [8] [nM] | GI50 [1, 10] [nM] | GI50 ([2]; prior art compounds) [nM] | GI50 ([6]; prior art compounds) [nM] | GI50 ([3]; prior art compounds) [nM] | GI50 ([4]; prior art compounds) [nM] | GI50 ([5]; prior art compounds) [nM] |
| --- | --- | --- | --- | --- | --- | --- | --- | --- | --- | --- | --- | --- | --- | --- |
| C=CC(=O)N1CCN(c2ncc3ncnc(Nc4ccc(Oc5ccc6c(c5)ncn6C)c(C)c4)c3n2)CC1 [Compound I-1] | 2400 | 16 | 1 | 82 | > 5000 | 18 | 10 | 265 | – | – | – | – | – | – |
| C=CC(=O)N1CCC[C@@H](n2nc(-c3ccc(Oc4ccccc4)cc3)c3c(N)ncnc32)C1 [ibrutinib, reference compound] | – | – | – | – | – | – | – | – | 70 | 16 | 44 | – | – | – |
| C=CC(=O)N1CCN(c2ncc3ncnc(Nc4ccc(Oc5ccc6c(c5)ncn6C)c(Br)c4)c3n2)CC1 [Compound I-5] | 572 | 16 | 1 | 76 | 2880 | 20 | 15 | 232 | – | – | – | – | – | – |
| C=CC(=O)N1CCN(c2ncc3ncnc(Nc4ccc(Oc5ccc6c(c5)ncn6C)c(Cl)c4)c3n2)CC1 [Compound I-4] | 904 | 11 | 2 | 81 | > 5000 | 17 | 10 | 221 | – | – | – | – | – | – |
| C#Cc1cc(Nc2ncnc3cnc(N4CCN(C(=O)C=C)CC4)nc23)ccc1Oc1ccc2c(c1)ncn2C [Compound I-2] | 1380 | 9 | 1 | 50 | 4660 | 9 | 10 | 380 | – | – | – | – | – | – |
| C=CC(=O)N1CCN(c2ncc3ncnc(Nc4cc(F)c(Oc5ccc6c(c5)ncn6C)c(F)c4)c3n2)CC1 [Compound I-11] | 644 | 47 | 3 | 339 | > 5000 | 40 | 25 | 1170 | – | – | – | – | – | – |
| C=CC(=O)N1CCN(c2ncc3ncnc(Nc4ccc(Oc5ccc6c(c5)ncn6C)c(OC)c4)c3n2)CC1 [Compound I-3] | 2800 | 18 | 1 | 74 | > 5000 | 12 | 17 | 1170 | – | – | – | – | – | – |
| Cc1cc(Nc2ncnc3ccc(NC4=NC(C)(C)CO4)cc23)ccc1Oc1ccn2ncnc2c1 [tucatinib, reference compound] | – | – | – | – | – | – | – | – | – | 58 | – | 10 | – | – |
| CCOc1cc2ncc(C#N)c(Nc3ccc(OCc4ccccn4)c(Cl)c3)c2cc1NC(=O)/C=C/CN(C)C [neratinib, reference compound] | – | – | – | – | – | – | – | – | 14 | 3 | 5 | – | 37 | 55 |
| C=CC(=O)Nc1ccc2ncnc(Nc3ccc(OCc4cccc(F)c4)c(Cl)c3)c2c1 [allitinib, reference compound] | – | – | – | – | – | – | – | – | 31 | 36 | 17 | – | – | – |
| C=CC(=O)N1CCN(c2ncc3ncnc(Nc4cc(Br)c(Oc5ccc6c(c5)ncn6C)c(Br)c4)c3n2)CC1 [Compound I-9] | 1120 | 46 | 5 | 203 | 2510 | 23 | 34 | 485 | – | – | – | – | – | – |
| C=CC(=O)N1CCC(Oc2cc3c(Nc4ccc(Cl)c(Cl)c4F)ncnc3cc2OC)CC1 [poziotinib, reference compound] | – | – | – | – | – | – | – | – | 1 | 1 | 2 | 1 | 5 | 1 |
| C=CC(=O)N1CCN(c2ncc3ncnc(Nc4cc(Cl)c(Oc5ccc6c(c5)ncn6C)c(Cl)c4)c3n2)CC1 [Compound I-7] | 1110 | 25 | 6 | 118 | > 5000 | 37 | 30 | 996 | – | – | – | – | – | – |
| C=CC(=O)N1CCN(c2ncc3ncnc(Nc4cc(F)c(Oc5ccc6c(c5)ncn6C)c(Cl)c4)c3n2)CC1 [Compound I-8] | 1040 | 21 | 3 | 172 | 3930 | 31 | 22 | 355 | – | – | – | – | – | – |
| C=CC(=O)N1CCN(c2ncc3ncnc(Nc4ccc(Oc5ccc6c(c5)ncn6C)cc4F)c3n2)CC1 [Compound I-12] | 1180 | 45 | 7 | 167 | 4810 | 48 | 27 | 873 | – | – | – | – | – | – |
| C=CC(=O)Nc1cccc(-n2c(=O)c(Oc3ccc(F)cc3F)cc3cnc(Nc4cnn(C)c4)nc32)c1 [WO 2019/046775 Comp.2, reference compound] | – | – | – | – | – | – | – | – | 13 | 22 | 14 | 3 | 34 | 16 |
| C=CC(=O)N1CCN(c2ncc3ncnc(Nc4cc(Br)c(Oc5ccc6c(c5)ncn6C)cc4Cl)c3n2)CC1 [Compound I-10] | 1630 | 52 | 8 | 216 | > 5000 | 64 | 80 | 1770 | – | – | – | – | – | – |
| C=CC(=O)Nc1ccc2ncnc(Nc3ccc(Oc4ccc5c(c4)ncn5C)c(C)c3)c2c1 [WO 2007/059257 Ex.185, reference compound] | – | – | – | – | – | – | – | – | – | – | 60 | – | – | > 5000 |
